The assay concerns Arabidopsis HST transgenic tobacco plants. As to the kind of experiment: Glasshouse spray test, Arabidopsis HST transgenic tobacco. The settings on record: for Damage % 5 DAT / Damage % 10 DAT: 10 g/ha; for Damage % 5 DAT / Damage % 10 DAT / blch (% bleaching at the meristem relative to control plants) / ht (% height reduction relative to control plants): individual T0 lines; for blch (% bleaching at the meristem relative to control plants) / ht (% height reduction relative to control plants): 100 g; for % damaged: 8 DAT. It is filed as in vivo. The text has this:
For example the Arabidopsis HST SEQ ID # 11 is cloned behind a double 35s CMV promoter sequence and a TMV translational enhancer sequence and in front of the 3′ terminator from the nos gene. This expression cassette is ligated into pMJB1 (described in WO98/20144) and then into pBIN19 and then transformed into Agrobacterium tuniqfaciens strains LBA4404 prior to plant transformation.
For example, the full length Arabidopsis HST seq ID # 11 is fused to the TMV translational enhancer sequence (SEQ ID #33) by overlapping PCR and, at the same time, 5′ XhoI site and a 3′KpnI site are added by PCR. Site-directed mutagenesis is performed to remove an internal XhoI site. The TMV/HPPD fusion is removed from the pBIN19 by digestion with XhoI/KpnI and is replaced by the TMV/HST fusion (SEQ ID #34). The TMV/HST fusion is now cloned behind a double 35s promoter and in front of the 3′ terminator from the nos gene. Again the modified pBIN19 vector (‘pBinAT HST’) is then transformed into Agrobacterium tumefaciens strain LBA4404.
A master plate of Agrobacterium tumefaciens containing the binary vector pBinAT HST (described above) or analogous binary vector comprising a different HST is used to inoculate 10 ml LB containing 100 mg/1 Rifampicin plus 50 mg/1 Kanamycin using a single bacterial colony. This is incubated overnight at 28° C. shaking at 200 rpm. This entire overnight culture is used to inoculate a 50 ml volume of LA (plus antibiotics). Again this is cultured overnight at 28° C. shaking at 200 rpm. The Agrobacterium cells are pelleted by centrifuging at 3000 rpm for 15 minutes then resuspended in MS medium with 30 g/1 sucrose, pH 5.9 to an OD ([…])=0.6. This suspension is dispensed in 25 ml aliquots into petri dishes.
Clonal micro-propagated tobacco shoot cultures are used to excise young (not yet fully expanded) leaves. The mid rib and outer leaf margins are removed and discarded, the remaining lamina is cut into 1 cm squares. These are transferred to the Agrobacterium suspension for 20 minutes. Explants are then removed, dabbed on sterile filter paper to remove excess suspension then transferred to NBM medium (MS medium, 30 g/1 sucrose, 1 mg/1 BAP, 0.1 mg/1 NAA, pH 5.9, solidified with 8 g/1 Plantagar), with the abaxial surface of each explant in contact with the medium. Approximately 7 explants are transferred per plate, which are then sealed then maintained in a lit incubator at 25° C., 16 hour photoperiod for 3 days.
Explants are then transferred to NBM medium containing 100 mg/1 Kanamycin plus antibiotics to prevent further growth of Agrobacterium (200 mg/1 timentin with 250 mg/1 carbenicillin). Further subculture on to this same medium is then performed every 2 weeks.
As shoots start to regenerate from the callusing leaf explants these are removed to Shoot elongation medium (MS medium, 30 g/1 sucrose, 8 g/1 Plantagar, 100 mg/1 Kanamycin, 200 mg/1 timentin, 250 mg/1 carbenicillin, pH 5.9). Stable transgenic plants readily root within 2 weeks. To provide multiple plants per event to ultimately allow more than one herbicide test per transgenic plant all rooting shoots are micropropagated to generate 3 or more rooted clones.
Putative transgenic plants that are rooting and show vigorous shoot growth on the medium incorporating Kanamycin are analysed by PCR using primers that amplified a 500 bp fragment within the Arabidopsis HST transgene.
Rooted transgenic T0 plantlets are transferred from agar and potted into 50% peat, 50% John Innes soil no 3 or, for example, MetroMix® 380 soil (Sun Gro Horticulture, Bellevue, Wash.) with slow-release fertilizer in 3 inch round or 4 inch square pots and left regularly watered to establish for 8-12 d in the glass house. Glass house conditions are about 24-27° C. day; 18-21° C. night and approximately a 14 h (or longer in UK summer) photoperiod. Humidity is ˜65% and light levels up to 2000 μmol/m^2 at bench level. […]

“And” between values parts separate entries of the source, which are not always exact repeats. Equal values may be shown once.

As to `CS(=O)(=O)c1ccc(C(=O)C2C(=O)CCCC2=O)c([N+](=O)[O-])c1` [Mesotrione, mesotrione, reference compound], the “Damage % 5 DAT” value (T0 line 332) came to 30%; the “Damage % 5 DAT” value (T0 line 351) stood at 50%; the “Damage % 5 DAT” value (T0 line 367) worked out at 25%; the “Damage % 5 DAT” value (T0 line 404) was 45%; the “Damage % 5 DAT” value (T0 line 426) is on record as 45%. For the same compound, the “Damage % 10 DAT” value (T0 line 332) is listed as 10%; the “Damage % 10 DAT” value (T0 line 351) amounted to 25%; the “Damage % 10 DAT” value (T0 line 367) was 10%; the “Damage % 10 DAT” value (T0 line 404) was 20%; the “Damage % 10 DAT” value (T0 line 426) turned out to be 20%. Besides, the “ht (herbicidal damage)” value (Arabidopsis HST T0 tobacco events (one value per event), 15 g/ha of mesotrione, 21 DAT) is 80 and 90 and 85 and 70 and 75.
Consider `CC(C)C(=O)Oc1c(-c2c(F)ccc(Br)c2Cl)c(=O)n(CC(F)F)c2nccnc12` [Compound 2.30], for which, for the setting “7 DAT”, the “blch (% bleaching at the meristem relative to control plants)” value is 30% (2×) and 5% (4×) and 10% (3×) and 15% (2×) and 50% and 70% (2×) and 20% (2×) and 0% (5×) and 40% and 100% and 80% and 25%; the “ht (% height reduction relative to control plants)” value was 30% (4×) and 0% (7×) and 50% and 70% (3×) and 80% (3×) and 40% (2×) and 5% and 10% (2×) and 15% and 20%. For the setting “26 DAT”, the “blch (% bleaching at the meristem relative to control plants)” value was 25% (2×) and 0% (16×) and 100% and 85% (2×) and 90% (4×); the “ht (% height reduction relative to control plants)” value was 75% (2×) and 5% (6×) and 15% (2×) and 30% (4×) and 50% (2×) and 60% and 80% and 90% (4×) and 35% and 10% (2×).
`Oc1c(Cl)c(F)nc(F)c1Cl` [Compound 1.1, haloxydine]: the “% damaged” value reads like this: (250 g/ha, line E9) 20% and 40%; (250 g/ha, line F6) 50% and 75%. In addition, the appearance of plants entry (250 g/ha, 25 DAT, line E9) is “healthy and similar sized to untreated control plants”. For the same compound, the “% damage” value (250 g/ha, 25 DAT, line F6) was 50-70%.
